These are literature values, as cited in PubChem BioAssay AID1259409 (Chemical Carcinogenesis Research Information System (CCRIS), 2018).

The test system of the series is rodent chemically induced tumor inhibition, incidence and multiplicity. The experiment in a line: CCRIS tumor inhibitor studies.

In the case of `N#CSCc1ccccc1`, the “tumour outcome (control, treated, inhibition, significance)” value (Carcinogen: 7,12-DIMETHYLBENZ[A]ANTHRACENE, 57-97-6, Dose [Inhibitor]: 0, 25 PPM IN DIET BEGINNING 2 WK PRIOR TO CARCINOGEN DOSE AND CONTINUING FOR 1 WK POST CARCINOGEN DOSE (STUDY DURATION:, Route [Inhibitor]: ORAL, Species: RAT, Strain/Sex: SPRAGUE-DAWLEY/FEMALE, Target Tissue: Type of Lesion: MAMMARY GLAND: TUMOR, Dose [Carcinogen]: 10 MG IN 1 ML OLIVE OIL ONCE AT 7 WK OF AGE, Promoter: NONE USED) is 19/21 (91%), 19/21 (91%), 0%; the “tumour outcome (control, treated, inhibition, significance)” value (Carcinogen: 7,12-DIMETHYLBENZ[A]ANTHRACENE, 57-97-6, Dose [Inhibitor]: 0.03 NMOL/G DIET DAILY FOR 17 WK STARTING 1 WK PRIOR TO CARCINOGEN TREATMENT AND CONTINUING THROUGH THE END OF THE STUDY, Route [Inhibitor]: ORAL, Species: RAT, Strain/Sex: SPRAGUE-DAWLEY/FEMALE, Target Tissue: Type of Lesion: MAMMARY GLAND: TUMOR, Dose [Carcinogen]: 12 MG IN 1 ML OLIVE OIL ONCE, Promoter: NONE USED) was 79%, 8%, 90%, p<0.001; the “tumour outcome (control, treated, inhibition, significance)” value (Carcinogen: 7,12-DIMETHYLBENZ[A]ANTHRACENE, 57-97-6, Dose [Inhibitor]: 5.0 MG/G DIET AT AGE 9 WK SIMULTANEOUSLY WITH CARCINOGEN, 3/WK FOR 4 WK (STUDY DURATION: 20 WK), Route [Inhibitor]: ORAL, Species: MOUSE, Strain/Sex: ICR/FEMALE, Target Tissue: Type of Lesion: FORESTOMACH: TUMOR, Dose [Carcinogen]: 0.05 MG/G DIET AT AGE 9 WK, 3/WK FOR 4 WK, Promoter: NONE USED) is on record as 87%, 80%, 8%, not significant; the “tumour outcome (control, treated, inhibition, significance)” value (Carcinogen: 7,12-DIMETHYLBENZ[A]ANTHRACENE, 57-97-6, Dose [Inhibitor]: 50 MG ONCE 2 HR BEFORE DMBA TREATMENT (STUDY DURATION: 18 WK), Route [Inhibitor]: INTRAGASTRIC, Species: RAT, Strain/Sex: SPRAGUE-DAWLEY/FEMALE, Target Tissue: Type of Lesion: MAMMARY GLAND: TUMOR, Dose [Carcinogen]: 12 MG IN 1 ML OLIVE OIL AT AGE 7 WK 2 HR AFTER AGENT TREATMENT, Promoter: NONE USED) is listed as 77%, 55%, 28%, not significant; the “tumour outcome (control, treated, inhibition, significance)” value (Carcinogen: 7,12-DIMETHYLBENZ[A]ANTHRACENE, 57-97-6, Dose [Inhibitor]: 50 MG ONCE 4 HR BEFORE DMBA TREATMENT (STUDY DURATION: 18 WK), Route [Inhibitor]: INTRAGASTRIC, Species: RAT, Strain/Sex: SPRAGUE-DAWLEY/FEMALE, Target Tissue: Type of Lesion: MAMMARY GLAND: TUMOR, Dose [Carcinogen]: 12 MG IN 1 ML OLIVE OIL AT AGE 7 WK 4 HR AFTER AGENT TREATMENT, Promoter: NONE USED) is on record as 100%, 36%, 64%, p<0.001; the “tumour outcome (control, treated, inhibition, significance)” value (Carcinogen: BENZO[A]PYRENE, 50-32-8, Dose [Inhibitor]: 0, 0.045 UMOL/G DIET BEGINNING 1 WK PRIOR TO CARCINOGEN TREATMENT AND CONTINUING FOR 1 WK POST CARCINOGEN TREATMENT FOLL, Route [Inhibitor]: ORAL, Species: MOUSE, Strain/Sex: CD-1/FEMALE, Target Tissue: Type of Lesion: FORESTOMACH: PAPILLOMA, Dose [Carcinogen]: 1 MG IN 0.2 ML CORN OIL 2/WK FOR 4 WK, Promoter: NONE USED) was 85%, 84%, 1%, not significant. In addition, the “tumour outcome (control, treated, inhibition, significance)” value (Carcinogen: DIETHYLNITROSAMINE, 55-18-5, Dose [Inhibitor]: 0, 100 PPM IN DIET FOR DURATION OF STUDY BEGINNING 1 WK PRIOR TO CARCINOGEN DOSE (STUDY DURATION: 53 WK), Route [Inhibitor]: ORAL, Species: RAT, Strain/Sex: ACI/MALE, Target Tissue: Type of Lesion: LIVER: HEPATOCELLULAR ADENOMA, Dose [Carcinogen]: 200 MG/KG BW ONCE, Promoter: NONE USED) is 10/18 (55%), 6/16 (38%), 31%, not significant; the “tumour outcome (control, treated, inhibition, significance)” value (Carcinogen: DIETHYLNITROSAMINE, 55-18-5, Dose [Inhibitor]: 0, 100 PPM IN DIET FOR DURATION OF STUDY BEGINNING 1 WK PRIOR TO CARCINOGEN DOSE (STUDY DURATION: 53 WK), Route [Inhibitor]: ORAL, Species: RAT, Strain/Sex: ACI/MALE, Target Tissue: Type of Lesion: LIVER: HEPATOCELLULAR CARCINOMA, Dose [Carcinogen]: 200 MG/KG BW ONCE, Promoter: NONE USED) is on record as 6/18 (33%), 2/16 (13%), 61%, not significant; the “tumour outcome (control, treated, inhibition, significance)” value (Carcinogen: METHYLAZOXYMETHANOL ACETATE, 592-62-1, Dose [Inhibitor]: 0, 100 PPM IN DIET FOR 4 WK BEGINNING 1 WK PRIOR TO CARCINOGEN TREATMENT (STUDY DURATION: 49 WK), Route [Inhibitor]: ORAL, Species: RAT, Strain/Sex: ACI/FEMALE, Target Tissue: Type of Lesion: COLON: CARCINOMA, Dose [Carcinogen]: 25 MG/KG BW 1/WK FOR 3 WK, Promoter: NONE USED) was 11/18 (61%), 10/12 (83%), -36%, not significant; the “tumour outcome (control, treated, inhibition, significance)” value (Carcinogen: METHYLAZOXYMETHANOL ACETATE, 592-62-1, Dose [Inhibitor]: 0, 100 PPM IN DIET FOR 4 WK BEGINNING 1 WK PRIOR TO CARCINOGEN TREATMENT (STUDY DURATION: 49 WK), Route [Inhibitor]: ORAL, Species: RAT, Strain/Sex: ACI/FEMALE, Target Tissue: Type of Lesion: SMALL INTESTINE: ADENOMA OR CARCINOMA, Dose [Carcinogen]: 25 MG/KG BW 1/WK FOR 3 WK, Promoter: NONE USED) is reported as 11/18 (61%), 8/12 (67%), -10%, not significant; the “tumour outcome (control, treated, inhibition, significance)” value (Carcinogen: METHYLAZOXYMETHANOL ACETATE, 592-62-1, Dose [Inhibitor]: 0, 100 PPM IN DIET FOR 46 WK BEGINNING 1 WK POST CARCINOGEN TREATMENT (STUDY DURATION: 49 WK), Route [Inhibitor]: ORAL, Species: RAT, Strain/Sex: ACI/FEMALE, Target Tissue: Type of Lesion: COLON: ADENOMA OR CARCINOMA, Dose [Carcinogen]: 25 MG/KG BW 1/WK FOR 3 WK, Promoter: NONE USED) is 15/18 (83%), 18/19 (95%), -14%, not significant; the “tumour outcome (control, treated, inhibition, significance)” value (Carcinogen: METHYLAZOXYMETHANOL ACETATE, 592-62-1, Dose [Inhibitor]: 0, 100 PPM IN DIET FOR 46 WK BEGINNING 1 WK POST CARCINOGEN TREATMENT (STUDY DURATION: 49 WK), Route [Inhibitor]: ORAL, Species: RAT, Strain/Sex: ACI/FEMALE, Target Tissue: Type of Lesion: SMALL INTESTINE: ADENOMA OR CARCINOMA, Dose [Carcinogen]: 25 MG/KG BW 1/WK FOR 3 WK, Promoter: NONE USED) is on record as 11/18 (61%), 8/19 (42%), 31%, not significant. Moreover, the “tumour outcome (control, treated, inhibition, significance)” value is 15/18 (83%), 17/21 (81%), 2%, not significant (Carcinogen: METHYLAZOXYMETHANOL ACETATE, 592-62-1, Dose [Inhibitor]: 0, 400 PPM IN DIET FOR 4 WK BEGINNING 1 WK PRIOR TO CARCINOGEN TREATMENT (STUDY DURATION: 49 WK), Route [Inhibitor]: ORAL, Species: RAT, Strain/Sex: ACI/FEMALE, Target Tissue: Type of Lesion: COLON: ADENOMA OR CARCINOMA, Dose [Carcinogen]: 25 MG/KG BW 1/WK FOR 3 WK, Promoter: NONE USED); 10/18 (56%), 1/21 (5%), 91%, not calculated (Carcinogen: METHYLAZOXYMETHANOL ACETATE, 592-62-1, Dose [Inhibitor]: 0, 400 PPM IN DIET FOR 4 WK BEGINNING 1 WK PRIOR TO CARCINOGEN TREATMENT (STUDY DURATION: 49 WK), Route [Inhibitor]: ORAL, Species: RAT, Strain/Sex: ACI/FEMALE, Target Tissue: Type of Lesion: SMALL INTESTINE: CARCINOMA, Dose [Carcinogen]: 25 MG/KG BW 1/WK FOR 3 WK, Promoter: NONE USED); 15/18 (83%), 13/18 (72%), 13%, not significant (Carcinogen: METHYLAZOXYMETHANOL ACETATE, 592-62-1, Dose [Inhibitor]: 0, 400 PPM IN DIET FOR 46 WK BEGINNING 1 WK POST CARCINOGEN TREATMENT (STUDY DURATION: 49 WK), Route [Inhibitor]: ORAL, Species: RAT, Strain/Sex: ACI/FEMALE, Target Tissue: Type of Lesion: COLON: ADENOMA OR CARCINOMA, Dose [Carcinogen]: 25 MG/KG BW 1/WK FOR 3 WK, Promoter: NONE USED); 11/18 (61%), 3/18 (17%), 72%, p<0.01 (Carcinogen: METHYLAZOXYMETHANOL ACETATE, 592-62-1, Dose [Inhibitor]: 0, 400 PPM IN DIET FOR 46 WK BEGINNING 1 WK POST CARCINOGEN TREATMENT (STUDY DURATION: 49 WK), Route [Inhibitor]: ORAL, Species: RAT, Strain/Sex: ACI/FEMALE, Target Tissue: Type of Lesion: SMALL INTESTINE: ADENOMA OR CARCINOMA, Dose [Carcinogen]: 25 MG/KG BW 1/WK FOR 3 WK, Promoter: NONE USED).
With `CN(C)CCOc1ccc(/C(=C(/CCCl)c2ccccc2)c2ccccc2)cc1`, the “tumour outcome (control, treated, inhibition, significance)” value is, setting by setting: (Carcinogen: N-METHYL-N-NITROSOUREA (684-93-5), Dose [Inhibitor]: 0, 0.2 MG/30 G BW ONCE EVERY 4 WK BEGINNING 1 WK POST CARCINOGEN DOSE (STUDY DURATION: 31 WK), Route [Inhibitor]: SUBCUTANEOUS, Species: MOUSE, Strain/Sex: ICR/FEMALE, Target Tissue: Type of Lesion: UTERUS: ENDOMETRIAL ADENOCARCINOMA, Dose [Carcinogen]: 1 MG/100 G BW IN 0.1 ML SALINE ONCE AT 10 WKS OF AGE, Promoter: 17 BETA-ESTRADIOL (50-28-2)) 8/24 (33%), 1/19 (5%), 85%, p< 0.01; (Carcinogen: N-METHYL-N-NITROSOUREA, 684-93-5, Dose [Inhibitor]: 0, 100 MG/KG IN DIET FOR 28 D THEN REDUCED TO 50 MG/KG IN DIET FOR THE DURATION OF STUDY (STUDY DURATION: 187 D), Route [Inhibitor]: ORAL, Species: RAT, Strain/Sex: SPRAGUE-DAWLEY/FEMALE, Target Tissue: Type of Lesion: MAMMARY GLAND: TUMOR, Dose [Carcinogen]: 50 MG/KG BW ONCE, Promoter: NONE USED) 100%, 46%, 54%, p<0.05.
